Data as given in patent publication US8530489B2 (Vertex Pharmaceuticals Incorporated, priority 2006, dated 2013).

The compounds below were run against PLK1 (Homo sapiens, UniProt P53350) (assay: PLK1 Inhibition Assay I (radioactive-phosphate incorporation)). Settings: Ki(app); PLK1 Inhibition Assay I or II (table does not say which).
Format: biochemical
Method in brief: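 Ki(app) values came from non-linear regression of initial rates after background subtraction, with phosphopeptide measured by phosphocellulose filter binding and scintillation counting. PLK1 at 2 nM was preincubated with compound (typically from 10 μM, 2-fold dilutions) for 10 min, then run 240 min at 25° C with 350 μM [γ-33P]ATP and 450 μM peptide substrate in HEPES pH 7.5 buffer.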

Chain of PLK1 (P53350 whole entry): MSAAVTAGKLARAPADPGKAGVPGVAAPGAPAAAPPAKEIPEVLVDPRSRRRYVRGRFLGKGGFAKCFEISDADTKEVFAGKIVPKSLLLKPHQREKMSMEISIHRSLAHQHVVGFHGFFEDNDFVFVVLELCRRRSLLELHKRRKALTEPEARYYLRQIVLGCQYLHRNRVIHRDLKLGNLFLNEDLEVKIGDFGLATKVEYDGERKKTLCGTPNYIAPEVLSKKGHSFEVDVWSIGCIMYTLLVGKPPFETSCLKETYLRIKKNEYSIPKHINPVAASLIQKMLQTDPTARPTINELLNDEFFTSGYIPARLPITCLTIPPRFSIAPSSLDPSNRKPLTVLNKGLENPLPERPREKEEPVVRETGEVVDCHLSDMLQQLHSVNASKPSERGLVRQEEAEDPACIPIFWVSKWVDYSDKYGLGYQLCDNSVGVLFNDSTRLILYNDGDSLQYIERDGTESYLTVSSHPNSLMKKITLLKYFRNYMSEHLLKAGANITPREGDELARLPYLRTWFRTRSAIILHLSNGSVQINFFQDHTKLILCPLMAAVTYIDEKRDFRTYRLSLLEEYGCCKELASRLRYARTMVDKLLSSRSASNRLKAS

Compound	Ki
CC(C)(Nc1ncc(C#N)c(-c2c[nH]c3ncc(C(F)(F)F)cc23)n1)C(=O)O [IA-9, 2-(5-cyano-4-(5-(trifluoromethyl)-1H-pyrrolo[2,3-b]pyridin-3-yl)pyrimidin-2-ylamino)-2-methylpropanoic acid]	> 40 nM
CC(Nc1ncc(C#N)c(-c2c[nH]c3ncc(C(F)(F)F)cc23)n1)C1CCN(C(=O)C2CC2)CC1 (stereo not drawn) [Compound I-159, 2-(1-(1-(cyclopropanecarbonyl)piperidin-4-yl)ethylamino)-4-(5-(trifluoromethyl)-1H-pyrrolo[2,3-b]pyridin-3-yl)pyrimidine-5-carbonitrile]	< 3 nM
CNC(=O)c1cccc(Nc2cnc3[nH]cc(-c4nc(NC(C)C)ncc4C#N)c3c2)c1 [EG7, 3-(3-(5-cyano-2-(isopropylamino)pyrimidin-4-yl)-1H-pyrrolo[2,3-b]pyridin-5-ylamino)-N-methylbenzamide]	3 to 40 nM
N#Cc1cnc(NCCO)nc1-c1c[nH]c2ncc(C(F)(F)F)cc12 [Compound I-109, 2-(2-hydroxyethylamino)-4-(5-(trifluoromethyl)-1H-pyrrolo[2,3-b]pyridin-3-yl)pyrimidine-5-carbonitrile]	3 to 40 nM
CC(C)[C@@H](O)C(=O)N1CCC([C@@H](C)Nc2ncc(C#N)c(-c3c[nH]c4ncc(C(F)(F)F)cc34)n2)CC1 [Compound I-256, 2-((R)-1-(1-((R)-2-hydroxy-3-methylbutanoyl)piperidin-4-yl)ethylamino)-4-(5-(trifluoromethyl)-1H-pyrrolo[2,3-b]pyridin-3-yl)pyrimidine-5-carbonitrile]	< 3 nM
CC(Nc1ncc(C#N)c(-c2c[nH]c3ncc(C(F)(F)F)cc23)n1)c1ccc(=O)[nH]c1 (stereo not drawn) [Compound I-100, 2-(1-(6-oxo-1,6-dihydropyridin-3-yl)ethylamino)-4-(5-(trifluoromethyl)-1H-pyrrolo[2,3-b]pyridin-3-yl)pyrimidine-5-carbonitrile]	< 3 nM
CC(Nc1ncc(C#N)c(-c2c[nH]c3ncc(C(F)(F)F)cc23)n1)C1CCN(S(=O)(=O)C2CC2)CC1 (stereo not drawn) [Compound I-158, 2-(1-(1-(cyclopropylsulfonyl)piperidin-4-yl)ethylamino)-4-(5-(trifluoromethyl)-1H-pyrrolo[2,3-b]pyridin-3-yl)pyrimidine-5-carbonitrile]	< 3 nM
COc1ccc(CNc2ncc(C#N)c(-c3c[nH]c4ncc(C(F)(F)F)cc34)n2)cc1Cl [Compound I-94, 2-(3-chloro-4-methoxybenzylamino)-4-(5-(trifluoromethyl)-1H-pyrrolo[2,3-b]pyridin-3-yl)pyrimidine-5-carbonitrile]	3 to 40 nM
CC(C)(Nc1ncc(C#N)c(-c2c[nH]c3ncc(Cl)cc23)n1)C(=O)NC1CCCCC1 [IA-5, 2-(4-(5-chloro-1H-pyrrolo[2,3-b]pyridin-3-yl)-5-cyanopyrimidin-2-ylamino)-N-cyclohexyl-2-methylpropanamide]	3 to 40 nM
CCCC(CCO)Sc1ncc(C#N)c(-c2c[nH]c3ncc(C(F)(F)F)cc23)n1 (stereo not drawn) [II-15, 2-(1-hydroxyhexan-3-ylthio)-4-(5-(trifluoromethyl)-1H-pyrrolo[2,3-b]pyridin-3-yl)pyrimidine-5-carbonitrile]	> 40 nM
CC(=O)Nc1ccc(CNc2ncc(C#N)c(-c3c[nH]c4ncc(C(F)(F)F)cc34)n2)cc1 [Compound I-72, N-(4-((5-cyano-4-(5-(trifluoromethyl)-1H-pyrrolo[2,3-b]pyridin-3-yl)pyrimidin-2-ylamino)methyl)phenyl)acetamide]	3 to 40 nM
CCN1CCN(c2ccc([C@@H](C)Nc3ncc(C#N)c(-c4c[nH]c5ncc(C(F)(F)F)cc45)n3)cn2)CC1 [Compound I-285, 2-((R)-1-(6-(4-ethylpiperazin-1-yl)pyridin-3-yl)ethylamino)-4-(5-(trifluoromethyl)-1H-pyrrolo[2,3-b]pyridin-3-yl)pyrimidine-5-carbonitrile]	< 3 nM
C[C@@H](Nc1ncc(C#N)c(-c2c[nH]c3ncc(C(F)(F)F)cc23)n1)c1ccc(C(N)=O)cc1 [Compound I-176, 4-((1R)-1-(5-cyano-4-(5-(trifluoromethyl)-1H-pyrrolo[2,3-b]pyridin-3-yl)pyrimidin-2-ylamino)ethyl)benzamide]	< 3 nM
CC(Nc1ncc(C#N)c(-c2c[nH]c3ncc(C(F)(F)F)cc23)n1)[C@H]1C[C@H](O)C1 (stereo partly drawn) [Compound I-269, 2-((S)-1-((1r,3S)-3-hydroxycyclobutyl)ethylamino)-4-(5-(trifluoromethyl)-1H-pyrrolo[2,3-b]pyridin-3-yl)pyrimidine-5-carbonitrile]	3 to 40 nM
C[C@H](N)CC(=O)N1CCC([C@@H](C)Nc2ncc(C#N)c(-c3c[nH]c4ncc(C(F)(F)F)cc34)n2)CC1 [Compound I-244, 2-((R)-1-(1-((S)-3-aminobutanoyl)piperidin-4-yl)ethylamino)-4-(5-(trifluoromethyl)-1H-pyrrolo[2,3-b]pyridin-3-yl)pyrimidine-5-carbonitrile]	< 3 nM
C[C@@H](O)CNc1ncc(C#N)c(-c2c[nH]c3ncc(C(F)(F)F)cc23)n1 [Compound I-97, 2-((R)-2-hydroxypropylamino)-4-(5-(trifluoromethyl)-1H-pyrrolo[2,3-b]pyridin-3-yl)pyrimidine-5-carbonitrile]	3 to 40 nM
CNC(=O)c1ccc([C@H](C)Nc2ncc(C#N)c(-c3c[nH]c4ncc(C(F)(F)F)cc34)n2)cc1 [Compound I-164, 4-((1S)-1-(5-cyano-4-(5-(trifluoromethyl)-1H-pyrrolo[2,3-b]pyridin-3-yl)pyrimidin-2-ylamino)ethyl)-N-methylbenzamide]	3 to 40 nM
C[C@@H](Nc1ncc(C#N)c(-c2c[nH]c3ncc(C(F)(F)F)cc23)n1)c1ccc(O[C@H]2CCN(C)C2)cc1 [Compound I-146, 2-((R)-1-(4-((S)-1-methylpyrrolidin-3-yloxy)phenyl)ethylamino)-4-(5-(trifluoromethyl)-1H-pyrrolo[2,3-b]pyridin-3-yl)pyrimidine-5-carbonitrile]	< 3 nM
C[C@@H](Nc1ncc(C#N)c(-c2c[nH]c3ncc(C(F)(F)F)cc23)n1)C1CCN(CCO)CC1 [Compound I-215, 2-((R)-1-(1-(2-hydroxyethyl)piperidin-4-yl)ethylamino)-4-(5-(trifluoromethyl)-1H-pyrrolo[2,3-b]pyridin-3-yl)pyrimidine-5-carbonitrile]	< 3 nM

Other lines, results leading:

Ki	Compound
< 3 nM	CCS(=O)(=O)Nc1ccc([C@@H](C)Nc2ncc(C#N)c(-c3c[nH]c4ncc(C(F)(F)F)cc34)n2)cc1 [Compound I-169, N-(4-((1R)-1-(5-cyano-4-(5-(trifluoromethyl)-1H-pyrrolo[2,3-b]pyridin-3-yl)pyrimidin-2-ylamino)ethyl)phenyl)ethanesulfonamide]
> 40 nM	COc1ccccc1CNc1ncc(C#N)c(-c2c[nH]c3ncc(C(F)(F)F)cc23)n1 [Compound I-15, 2-(2-methoxybenzylamino)-4-(5-(trifluoromethyl)-1H-pyrrolo[2,3-b]pyridin-3-yl)pyrimidine-5-carbonitrile]
< 3 nM	C[C@@H](Nc1ncc(C#N)c(-c2c[nH]c3ncc(C(F)(F)F)cc23)n1)c1ccc(NC(=O)C2CC2)cc1 [Compound I-137, N-(4-((1R)-1-(5-cyano-4-(5-(trifluoromethyl)-1H-pyrrolo[2,3-b]pyridin-3-yl)pyrimidin-2-ylamino)ethyl)phenyl)cyclopropanecarboxamide]
> 40 nM	N#Cc1cnc(Sc2ccc(Br)cc2)nc1-c1c[nH]c2ncc(C(F)(F)F)cc12 [II-8, 2-(4-bromophenylthio)-4-(5-(trifluoromethyl)-1H-pyrrolo[2,3-b]pyridin-3-yl)pyrimidine-5-carbonitrile]
< 3 nM	CCC(=O)N1CCC(C(C)Nc2ncc(C#N)c(-c3c[nH]c4ncc(C(F)(F)F)cc34)n2)CC1 (stereo not drawn) [Compound I-187, 2-(1-(1-propionylpiperidin-4-yl)ethylamino)-4-(5-(trifluoromethyl)-1H-pyrrolo[2,3-b]pyridin-3-yl)pyrimidine-5-carbonitrile]
< 3 nM	CC(Nc1ncc(C#N)c(-c2c[nH]c3ncc(C(F)(F)F)cc23)n1)C1CCN(CC#N)CC1 (stereo not drawn) [Compound I-166, 2-(1-(1-(cyanomethyl)piperidin-4-yl)ethylamino)-4-(5-(trifluoromethyl)-1H-pyrrolo[2,3-b]pyridin-3-yl)pyrimidine-5-carbonitrile]
3 to 40 nM	N#Cc1cnc(NC2(C(=O)NCC(F)(F)F)CCCCC2)nc1-c1c[nH]c2ncc(Cl)cc12 [IA-3, 1-(4-(5-chloro-1H-pyrrolo[2,3-b]pyridin-3-yl)-5-cyanopyrimidin-2-ylamino)-N-(2,2,2-trifluoroethyl)cyclohexanecarboxamide]
< 3 nM	C[C@@H](Nc1ncc(C#N)c(-c2c[nH]c3ncc(C(F)(F)F)cc23)n1)C1CCN(CC(N)=O)CC1 [Compound I-218, 2-(4-((1R)-1-(5-cyano-4-(5-(trifluoromethyl)-1H-pyrrolo[2,3-b]pyridin-3-yl)pyrimidin-2-ylamino)ethyl)piperidin-1-yl)acetamide]
> 40 nM	C[C@H](Nc1ncc(C#N)c(-c2c[nH]c3ncc(C(F)(F)F)cc23)n1)c1ccc(O[C@@H]2CCN(C)C2)nc1 [Compound I-301, 2-((S)-1-(6-(I-1-methylpyrrolidin-3-yloxy)pyridin-3-yl)ethylamino)-4-(5-(trifluoromethyl)-1H-pyrrolo[2,3-b]pyridin-3-yl)pyrimidine-5-carbonitrile]
< 3 nM	C[C@@H](N)C(=O)N1CCC([C@@H](C)Nc2ncc(C#N)c(-c3c[nH]c4ncc(C(F)(F)F)cc34)n2)CC1 [Compound I-225, 2-((R)-1-(1-((R)-2-aminopropanoyl)piperidin-4-yl)ethylamino)-4-(5-(trifluoromethyl)-1H-pyrrolo[2,3-b]pyridin-3-yl)pyrimidine-5-carbonitrile]
< 3 nM	CC(Nc1ncc(C#N)c(-c2c[nH]c3ncc(C(F)(F)F)cc23)n1)c1ccc(N2CCC(O)CC2)nc1 (stereo not drawn) [Compound I-162, 2-(1-(6-(4-hydroxypiperidin-1-yl)pyridin-3-yl)ethylamino)-4-(5-(trifluoromethyl)-1H-pyrrolo[2,3-b]pyridin-3-yl)pyrimidine-5-carbonitrile]
